In ChEMBL document CHEMBL3856212, “Synthesis, anti-proliferative and genotoxicity studies of 6-chloro-5-(2-substituted-ethyl)-1,3-dihydro-2H-indol-2-ones and 6-chloro-5-(2-chloroethyl)-3-(alkyl/ary-2-ylidene)indolin-2-ones” (Eur J Med Chem, 2016):

Tests used:
[1] = Cytotoxicity against human Caki1 cells assessed as assessed as growth inhibition at 10^-5 M after 48 hrs by SRB assay relative to control; type: functional; conditions: CAKI-1, 48 h, read-out: GI
[2] = Cytotoxicity against human HT-29 cells assessed as growth inhibition after 48 hrs by SRB assay; type: functional; conditions: HT-29, 48 h; for CC50: read-out: LD50 (the source's name)
[3] = Cytotoxicity against human A498 cells assessed as assessed as growth inhibition at 10^-5 M after 48 hrs by SRB assay relative to control; type: functional; conditions: A498, 48 h, read-out: GI
Mus musculus [4] = organism: Mus musculus; test: Genotoxicity in mouse EAC cells at 375 uM after 24 hrs by micronucleus assay (reference value: 3.5 +/- 0.30%); type: toxicity, cell-based; conditions: ehrlich
[5] = Cytotoxicity against human IGROV1 cells assessed as assessed as growth inhibition at 10^-5 M after 48 hrs by SRB assay relative to control; type: functional; conditions: IGROV-1, 48 h, read-out: GI
[6] = Cytotoxicity against human TK10 cells assessed as assessed as growth inhibition at 10^-5 M after 48 hrs by SRB assay relative to control; type: functional; conditions: TK-10, 48 h, read-out: GI
[7] = Cytotoxicity against human EKVX cells assessed as growth inhibition after 48 hrs by SRB assay; type: functional; conditions: for CC50: read-out: LD50 (the source's name)
[8] = Induction of apoptosis in mouse EAC cells at 375 uM after 24 hrs by acridine orange dye-based fluorescence microscopy (reference value: 0.66 +/- 0.33%); type: cell-based; conditions: ehrlich
[9] = Cytotoxicity against human MOLT4 cells assessed as growth inhibition after 48 hrs by SRB assay; type: functional; conditions: MOLT-4, 48 h; for CC50: read-out: LD50 (the source's name)
[10] = Cytotoxicity against human CCRF-CEM cells assessed as growth inhibition after 48 hrs by SRB assay; type: functional; conditions: for CC50: read-out: LD50 (the source's name)
[11] = Cytotoxicity against human NCI-H23 cells assessed as assessed as growth inhibition at 10^-5 M after 48 hrs by SRB assay relative to control; type: functional; conditions: NCI-H23, 48 h, read-out: GI
Mus musculus [12] = organism: Mus musculus; test: Genotoxicity in mouse EAC cells at 125 uM after 24 hrs by micronucleus assay (reference value: 3.5 +/- 0.30%); type: toxicity, cell-based; conditions: ehrlich
[13] = Cytotoxicity against human KM12 cells assessed as growth inhibition after 48 hrs by SRB assay; type: functional; conditions: KM12, 48 h; for CC50: read-out: LD50 (the source's name)
[14] = Cytotoxicity against human KM12 cells assessed as assessed as growth inhibition at 10^-5 M after 48 hrs by SRB assay relative to control; type: functional; conditions: KM12, 48 h, read-out: GI
[15] = Cytotoxicity against human 786-0 cells assessed as assessed as growth inhibition at 10^-5 M after 48 hrs by SRB assay relative to control; type: functional; conditions: 786-0, 48 h, read-out: GI
[16] = Cytotoxicity against human OVCAR3 cells assessed as growth inhibition after 48 hrs by SRB assay; type: functional; conditions: OVCAR-3, 48 h; for CC50: read-out: LD50 (the source's name)
[17] = Cytotoxicity against human NCI-ADR-RES cells assessed as growth inhibition after 48 hrs by SRB assay; type: functional; conditions: for CC50: read-out: LD50 (the source's name)
[18] = Cytotoxicity against human MDA-MB-468 cells assessed as growth inhibition after 48 hrs by SRB assay; type: functional; conditions: MDA-MB-468, 48 h; for CC50: read-out: LD50 (the source's name)
[19] = Cytotoxicity against human DU145 cells assessed as growth inhibition after 48 hrs by SRB assay; type: functional; conditions: DU-145, 48 h; for CC50: read-out: LD50 (the source's name)
[20] = Cytotoxicity against human K562 cells assessed as growth inhibition after 48 hrs by SRB assay; type: functional; conditions: K562, 48 h; for CC50: read-out: LD50 (the source's name)
[21] = Cytotoxicity against human M14 cells assessed as growth inhibition after 48 hrs by SRB assay; type: functional; conditions: M14, 48 h; for CC50: read-out: LD50 (the source's name)
[22] = Cytotoxicity against human SKOV3 cells assessed as growth inhibition after 48 hrs by SRB assay; type: functional; conditions: SK-OV-3, 48 h; for CC50: read-out: LD50 (the source's name)
[23] = Cytotoxicity against human HCT15 cells assessed as assessed as growth inhibition at 10^-5 M after 48 hrs by SRB assay relative to control; type: functional; conditions: HCT-15, 48 h, read-out: GI
[24] = Cytotoxicity against human MDA-MB-435 cells assessed as growth inhibition after 48 hrs by SRB assay; type: functional; conditions: MDA-MB-435, 48 h, read-out: LD50 (the source's name)
[25] = Cytotoxicity against human LOXIMVI cells assessed as growth inhibition after 48 hrs by SRB assay; type: functional; conditions: LOX IMVI; for CC50: read-out: LD50 (the source's name)
[26] = Cytotoxicity against human Hs 578T cells assessed as growth inhibition after 48 hrs by SRB assay; type: functional; conditions: for CC50: read-out: LD50 (the source's name)
[27] = Cytotoxicity against human SN12C cells assessed as growth inhibition after 48 hrs by SRB assay; type: functional; conditions: for CC50: read-out: LD50 (the source's name)
[28] = Cytotoxicity against human UACC257 cells assessed as growth inhibition after 48 hrs by SRB assay; type: functional; conditions: UACC-257, 48 h; for CC50: read-out: LD50 (the source's name)
[29] = Cytotoxicity against human UACC257 cells assessed as assessed as growth inhibition at 10^-5 M after 48 hrs by SRB assay relative to control; type: functional; conditions: UACC-257, 48 h, read-out: GI
[30] = Cytotoxicity against human RXF393 cells assessed as growth inhibition after 48 hrs by SRB assay; type: functional; conditions: RXF 393, 48 h; for CC50: read-out: LD50 (the source's name)
[31] = Cytotoxicity against human LOXIMVI cells assessed as assessed as growth inhibition at 10^-5 M after 48 hrs by SRB assay relative to control; type: functional; conditions: LOX IMVI, read-out: GI
[32] = Cytotoxicity against human UACC62 cells assessed as growth inhibition after 48 hrs by SRB assay; type: functional; conditions: UACC-62, 48 h; for CC50: read-out: LD50 (the source's name)
[33] = Cytotoxicity against human SK-MEL-2 cells assessed as assessed as growth inhibition at 10^-5 M after 48 hrs by SRB assay relative to control; type: functional; conditions: SK-MEL-2, 48 h, read-out: GI
[34] = Cytotoxicity against human MDA-MB-231 cells assessed as growth inhibition after 48 hrs by SRB assay; type: functional; conditions: MDA-MB-231, 48 h; for CC50: read-out: LD50 (the source's name)

Work on `O=C1Cc2cc(CCn3ccnc3)c(Cl)cc2N1` yielded an inhibition of growth at 10 µM [1] of 36.3%, a GI50 [2] of 1000 nM and a TGI [2] of over 1000 nM. The CC50 [2] was over 1000 nM, the inhibition of growth at 10 µM [3] was 32.2% and the Activity (Mus musculus [4]) was 3.43%. It also gave an inhibition of growth at 10 µM [5] of 13.3%, an inhibition of growth at 10 µM [6] of -23.4% and a GI50 [7] of 6130 nM. The TGI [7] was over 1000 nM, the CC50 [7] was over 1000 nM and the Activity [8] was 0.66%. For the same compound, the GI50 [9] was 5670 nM, the TGI [9] was over 1000 nM and the CC50 [9] was over 1000 nM. It also gave a GI50 [10] of 3370 nM, a TGI [10] of over 1000 nM and a CC50 [10] of over 1000 nM. The inhibition of growth at 10 µM [11] was 73.3%, the Activity (Mus musculus [12]) was 2.76% and the GI50 [13] was 3580 nM. The TGI [13] was 9840 nM, the CC50 [13] was over 1000 nM and the inhibition of growth at 10 µM [14] was 67.8%. It also gave an inhibition of growth at 10 µM [15] of 10.6%, a GI50 [16] of 9310 nM and a TGI [16] of 7810 nM. For the same compound, the CC50 [16] was over 1000 nM, the GI50 [17] was 5460 nM and the TGI [17] was over 1000 nM. For the same compound, the CC50 [17] was over 1000 nM, the GI50 [18] was 2740 nM and the TGI [18] was over 1000 nM. For the same compound, the CC50 [18] was over 1000 nM, the GI50 [19] was 8020 nM and the TGI [19] was over 1000 nM. For the same compound, the CC50 [19] was over 1000 nM, the GI50 [20] was 8260 nM and the TGI [20] was over 1000 nM. For the same compound, the CC50 [20] was over 1000 nM, the GI50 [21] was 3460 nM and the TGI [21] was 3980 nM. For the same compound, the CC50 [21] was over 1000 nM, the GI50 [22] was 1810 nM and the TGI [22] was over 1000 nM. The CC50 [22] was over 1000 nM, the inhibition of growth at 10 µM [23] was 32.8% and the CC50 [24] was over 1000 nM. For the same compound, the GI50 [25] was 8530 nM, the TGI [25] was over 1000 nM and the CC50 [25] was over 1000 nM. It also gave a GI50 [26] of 8730 nM, a TGI [26] of 9920 nM and a CC50 [26] of over 1000 nM. It also gave a GI50 [27] of 1650 nM, a TGI [27] of over 1000 nM and a CC50 [27] of over 1000 nM. For the same compound, the CC50 [28] was over 1000 nM, the inhibition of growth at 10 µM [29] was 39.8% and the GI50 [30] was 6280 nM. The TGI [30] was over 1000 nM, the CC50 [30] was over 1000 nM and the inhibition of growth at 10 µM [31] was 26.4%. The GI50 [32] was 7680 nM, the TGI [32] was over 1000 nM and the CC50 [32] was over 1000 nM. It also gave an inhibition of growth at 10 µM [33] of 19.3%, a GI50 [34] of 5180 nM and a TGI [34] of over 1000 nM. It also gave a CC50 [34] of over 1000 nM.

Compound `O=C1Cc2cc(CCN3CCNCC3)c(Cl)cc2N1` has an inhibition of growth at 10 µM [1] of 37.2%, a GI50 [2] of 1000 nM and a TGI [2] of over 1000 nM. The CC50 [2] was over 1000 nM, the inhibition of growth at 10 µM [3] was 33.9% and the Activity (Mus musculus [4]) was 6.33%. It also gave an inhibition of growth at 10 µM [5] of 11%, an inhibition of growth at 10 µM [6] of 10.9% and a GI50 [7] of 3580 nM. The TGI [7] was over 1000 nM, the CC50 [7] was over 1000 nM and the Activity [8] was 1.33%. For the same compound, the GI50 [9] was 1000 nM, the TGI [9] was over 1000 nM and the CC50 [9] was over 1000 nM. For the same compound, the GI50 [10] was 2980 nM, the TGI [10] was over 1000 nM and the CC50 [10] was over 1000 nM. It also gave an inhibition of growth at 10 µM [11] of 77.2%, an Activity (Mus musculus [12]) of 3.36% and a GI50 [13] of 3960 nM. The TGI [13] was over 1000 nM, the CC50 [13] was over 1000 nM and the inhibition of growth at 10 µM [14] was 70.4%. It also gave an inhibition of growth at 10 µM [15] of 15.3%, a GI50 [16] of 1410 nM and a TGI [16] of over 1000 nM. The CC50 [16] was over 1000 nM, the GI50 [17] was 5110 nM and the TGI [17] was over 1000 nM. It also gave a CC50 [17] of over 1000 nM, a GI50 [18] of 2240 nM and a TGI [18] of 7420 nM. For the same compound, the CC50 [18] was over 1000 nM, the GI50 [19] was 1990 nM and the TGI [19] was over 1000 nM. For the same compound, the CC50 [19] was over 1000 nM, the GI50 [20] was 6240 nM and the TGI [20] was over 1000 nM. The CC50 [20] was over 1000 nM, the GI50 [21] was 3020 nM and the TGI [21] was 2650 nM. For the same compound, the CC50 [21] was over 1000 nM, the GI50 [22] was 1000 nM and the TGI [22] was over 1000 nM. For the same compound, the CC50 [22] was over 1000 nM, the inhibition of growth at 10 µM [23] was 51.2% and the CC50 [24] was over 1000 nM. For the same compound, the GI50 [25] was 1000 nM, the TGI [25] was over 1000 nM and the CC50 [25] was over 1000 nM. The GI50 [26] was 1570 nM, the TGI [26] was over 1000 nM and the CC50 [26] was over 1000 nM. The GI50 [27] was 6000 nM, the TGI [27] was over 1000 nM and the CC50 [27] was over 1000 nM. It also gave a GI50 [28] of 6520 nM, a TGI [28] of over 1000 nM and a CC50 [28] of over 1000 nM. For the same compound, the inhibition of growth at 10 µM [29] was 48%, the GI50 [30] was 6890 nM and the TGI [30] was over 1000 nM. It also gave a CC50 [30] of over 1000 nM, an inhibition of growth at 10 µM [31] of 21.4% and a GI50 [32] of 6540 nM. The TGI [32] was over 1000 nM, the CC50 [32] was over 1000 nM and the inhibition of growth at 10 µM [33] was 53.9%. For the same compound, the GI50 [34] was 3900 nM, the TGI [34] was over 1000 nM and the CC50 [34] was over 1000 nM.
